Assay results published in article PMC12597562 (Molecular Pharmacology, 2025).

Legend:
human DAT [1] = biological target: T1, human DAT (Homo sapiens, UniProt Q01959); experiment: […]RTI-55 competition binding, cell membranes; details: read-out: Inhibition of [^125I]RTI-55 Binding pKi ± SD (n) (converted)
T1 construct: gene SLC6A3; full-length codon-optimized human DAT with N-terminal mScarlet-I tag (subcloned from EYFP-DAT), stably expressed in TAAR1 KO HEK293 cells

human DAT [2] = biological target: T1, human DAT; experiment: [3H]dopamine uptake inhibition, intact cells; type: cell-based
[3] = substrate: NCCc1ccc(O)c(O)c1; experiment: cells, lysate or membranes; details: TAAR1-/- DAT cells, vehicle pretreatment, 10 min uptake; labelled compound; n=4

CCN(C[C@H]1COC(N)=N1)c1ccccc1 [RO5166017]
Ki (human DAT [1]): 21.9 µM
IC50 (human DAT [2]; read-out: Inhibition of [^3H]DA Uptake pIC50 ± SD (n) (converted)): 17.4 µM

CC[C@@H](C[C@H]1COC(N)=N1)c1ccccc1 [RO5256390]
Inhibition of [^3H]DA Uptake pIC50 ± SD (n) (human DAT [2]; 20 nM [3H]DA, 10 min preincubation, 10 min uptake, 25 °C, Krebs-HEPES buffer, n=6): 5.73 ± 0.23

B1: human DAT (Homo sapiens) (protein)
chain: MSKSKCSVGLMSSVVAPAKEPNAVGPKEVELILVKEQNGVQLTSSTLTNPRQSPVEAQDRETWGKKIDFLLSVIGFAVDLANVWRFPYLCYKNGGGAFLVPYLLFMVIAGMPLFYMELALGQFNREGAAGVWKICPILKGVGFTVILISLYVGFFYNVIIAWALHYLFSSFTTELPWIHCNNSWNSPNCSDAHPGDSSGDSSGLNDTFGTTPAAEYFERGVLHLHQSHGIDDLGPPRWQLTACLVLVIVLLYFSLWKGVKTSGKVVWITATMPYVVLTALLLRGVTLPGAIDGIRAYLSVDFYRLCEASVWIDAATQVCFSLGVGFGVLIAFSSYNKFTNNCYRDAIVTTSINSLTSFSSGFVVFSFLGYMAQKHSVPIGDVAKDGPGLIFIIYPEAIATLPLSSAWAVVFFIMLLTLGIDSAMGGMESVITGLIDEFQLLHRHRELFTLFIVLATFLLSLFCVTNGGIYVFTLLDHFAAGTSILFGVLIEAIGVAWFYGVGQFSDDIQQMTGQRPSLYWRLCWKLVSPCFLLFVVVVSIVTFRPPHYGAYIFPDWANALGWVIATSSMAMVPIYAAYKFCSLPGSFREKLAYAIAPEKDRELVDRGEVRQFTLRHWLKV
Km [3]: 0.631 ± 0.26 µM
Vmax [3]: 1.63e-06 µmol/min/mg
